The conditions of data set [1]: cited from earlier work.
The nature of data set [2]: Solubility measurement of berberine salts in water (Example 3). The note with it: room temperature (about 20° C.).

Regarding `COc1ccc2cc3[n+](cc2c1OC)CCc1cc2c(cc1-3)OCO2` [berberine chloride, berberine chloride dihydrate], the loss of water entry in data set [1] (elevated temperature or low humidity environment) is given as “more than 8%”. Further, the uptake of water result in data set [1] (in water or a high humidity environment, converts to tetrahydrate form) is on record as “about 8%”. For the molecule berberine hemi-sulfate, the “solubility in water at room temperature” value in data set [2] is > 20 mg/mL.

Values taken from patent publication US12358922B1, “Berberine alpha-ketoglutarate salt, crystalline form, methods of preparation and applications thereof” (priority 2024, dated 2025).
